Data as given in article PMC6893557, “Discovery of Non-peptide Small Molecule Allosteric Modulators of the Src-family Kinase, Hck” (Frontiers in Chemistry, 2019).
“And” between values parts separate entries of the source, which are not always exact repeats. Identical values can stand only once.

Key:
Fgr SH32 = target: T1, Fgr SH32 (Homo sapiens, UniProt P09769); assay: SPR binding, Fgr dual SH3-SH2 domain protein; settings: kinetic KD, 1:1 Langmuir model, ± S.E., NI = no interaction; for Kd: read-out: KD, Fgr proteins SH32
T1 construct: including a dual SH3-SH2 domain protein; made in house; host or cells: E. coli
T1 sequence (P09769 77-241 limits assumed): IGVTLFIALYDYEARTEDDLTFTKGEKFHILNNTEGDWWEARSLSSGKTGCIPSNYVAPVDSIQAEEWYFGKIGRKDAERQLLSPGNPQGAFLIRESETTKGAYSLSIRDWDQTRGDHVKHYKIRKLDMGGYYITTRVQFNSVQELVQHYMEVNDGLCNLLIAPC
Experimental: (§1) SPR analysis was performed on a Reichert 4SPR instrument (Reichert Technologies) using four-channel carboxymethyl dextran hydrogel biosensor chips (Reichert #13206066). Recombinant purified Hck proteins were covalently attached to the chip surface via standard amine coupling chemistry (Grover et al., [2015]). Compounds were prepared in 20 mM Tris-HCl, pH 8.3, 150 mM NaCl, and 1% DMSO and flowed past the immobilized proteins and a reference channel at a flow rate of 50 μL/min for 60 s over a range of concentrations. The binding reaction was followed by dissociation for 120 s, followed by surface regeneration using 10 mM HEPES, pH 7.5, containing 150 mM NaCl, 3 mM EDTA, and 0.05% polysorbate 20, at a flow rate of 50 μL/min for 30 s. All sensorgrams were recorded in triplicate, corrected for buffer effects, and fitted with the 1:1 Langmuir binding model using the TraceDrawer software (Reichert).

Fgr U-SH32-L = target: T2, Fgr U-SH32-L (Homo sapiens, UniProt P09769); assay: SPR binding, Fgr unique-SH3-SH2-linker protein; settings: kinetic KD, 1:1 Langmuir model, ± S.E., NI = no interaction; for Kd: read-out: KD, Fgr proteins U-SH32-L
T2 construct: the complete regulatory region, consisting of the unique, SH3, and SH2 domains plus the SH2-kinase linker (U32L protein); made in house; host or cells: E. coli
T2 sequence (P09769 1-257 limits assumed): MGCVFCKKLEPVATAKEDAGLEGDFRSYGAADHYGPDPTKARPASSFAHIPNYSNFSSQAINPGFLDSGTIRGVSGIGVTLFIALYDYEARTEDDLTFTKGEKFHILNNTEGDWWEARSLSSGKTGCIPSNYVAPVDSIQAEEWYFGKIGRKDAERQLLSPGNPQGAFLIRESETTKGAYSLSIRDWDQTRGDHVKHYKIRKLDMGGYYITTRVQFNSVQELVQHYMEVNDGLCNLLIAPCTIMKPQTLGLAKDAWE
Experimental: as §1

Hck SH32-L = target: T3, Hck SH32-L (Homo sapiens, UniProt P08631); assay: SPR binding, Hck SH3-SH2-linker protein; settings: for Kd: kinetic KD, 1:1 Langmuir model, ± S.E., NI = no interaction, read-out: KD, Hck proteins SH32-L
T3 construct: an SH3-SH2-linker protein lacking the N-terminal unique domain; made in house; host or cells: E. coli
T3 sequence (P08631 72-256 limits assumed): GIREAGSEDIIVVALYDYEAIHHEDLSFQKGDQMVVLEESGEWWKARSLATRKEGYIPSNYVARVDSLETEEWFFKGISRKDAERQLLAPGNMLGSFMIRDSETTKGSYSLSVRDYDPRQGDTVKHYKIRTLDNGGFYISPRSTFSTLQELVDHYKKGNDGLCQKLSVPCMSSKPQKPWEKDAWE
Experimental: as §1
(§2) Interaction was monitored to equilibrium, followed by a dissociation phase. The resulting sensorgrams were best-fit to determine the kinetic rate constants and corresponding KD values, where KD = koff/kon. As positive controls, we also monitored the interaction of peptide ligands for the SH3 and SH2 domains.

Hck U32L protein = target: T4, Hck U32L protein (Homo sapiens, UniProt P08631); assay: Fluorescence polarization (FP) assay: displacement of VSL12 probe peptide from Hck-U32L; assay type: binding; settings: IC50, inhibition of VSL12 peptide FP signal, Hck-U32L plus fluorescent VSL12 probe; two independent determinations ± S.E., each data point in triplicate
T4 construct: including the N-terminal unique region, followed by the SH3 and SH2 domains, and the SH2-kinase linker; made in house; host or cells: E. coli
T4 sequence (P08631 22-256): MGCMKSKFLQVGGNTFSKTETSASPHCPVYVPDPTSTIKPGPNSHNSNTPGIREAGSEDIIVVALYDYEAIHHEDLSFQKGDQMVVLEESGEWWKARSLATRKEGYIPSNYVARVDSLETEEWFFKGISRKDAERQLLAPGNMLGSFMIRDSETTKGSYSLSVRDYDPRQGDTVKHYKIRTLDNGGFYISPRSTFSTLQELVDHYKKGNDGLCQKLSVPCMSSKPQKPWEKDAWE
Experimental: For the FP assay, the peptide was labeled with 6-carboxyfluorescein at its N-terminus. […] Molecular weight and purity of all peptides were verified by mass spectrometry. Stock solutions (10 mM) were prepared in a 1:1 mixture of DMSO and FP assay buffer (20 mM Tris-HCl, pH 8.3) for the labeled peptide and FP assay buffer for the unlabeled peptide. Stock solutions were stored at −20°C.
FP assays were performed in low-volume black 384-well plates with a non-binding surface (Corning #3676). Peptides and proteins were added to each well in FP assay buffer for a final assay volume of 20 μL and mixed by shaking for 5 min at room temperature. […] Raw fluorescence intensity was also read at the same wavelengths for each assay.
Screening libraries were purchased from ChemDiv (10,000 non-peptide peptidomimetic library) and ChemBridge (50,000 compound diversity library). Each library compound was screened at 50 μM and a final DMSO concentration of 1%. […] Each plate contained 32 wells of the Hck U32L protein plus probe peptide and DMSO as positive controls, and 32 wells of mutant Hck U32L-W118A protein plus probe peptide and DMSO as negative controls. Results for each compound test well were ranked by z score analysis according to the formula: z = (sample FP—mean FPsamples)/standard deviationsamples (Shun et al., [2011]). Potential hit compounds, defined as those that inhibited the FP signal by at least 30% and/or with z scores < −3.0, were then retested in quadruplicate using the FP assay under screening assay conditions.
The target protein for HTS consisted of the entire regulatory region of the p59 form of human Hck, including the N-terminal unique region, followed by the SH3 and SH2 domains, and the SH2-kinase linker (referred to hereafter as the Hck “U32L” protein). […] The principle of the assay is illustrated in Figure 2A. Binding of the probe peptide to the SH3 domain in the target protein slows its rotation, resulting in an increase in the FP signal. Library compounds that interfere with probe binding or stabilize SH3-linker interaction reduce the FP signal, and score as hits.

Hck-YEEI = target: T5, Hck-YEEI (Homo sapiens, UniProt P08631, Q523E/Q524E/Q525I); assay: SPR binding, near-full-length Hck; settings: kinetic KD, 1:1 Langmuir model, ± S.E., NI = no interaction, read-out: KD, Hck proteins Hck-YEEI
T5 construct: a near-full-length form of Hck consisting of the SH3, SH2 and kinase domains plus the tyrosine-phosphorylated tail; made in house; host or cells: Sf9 insect cells
T5 sequence (P08631 78-526 Q523E/Q524E/Q525I limits assumed): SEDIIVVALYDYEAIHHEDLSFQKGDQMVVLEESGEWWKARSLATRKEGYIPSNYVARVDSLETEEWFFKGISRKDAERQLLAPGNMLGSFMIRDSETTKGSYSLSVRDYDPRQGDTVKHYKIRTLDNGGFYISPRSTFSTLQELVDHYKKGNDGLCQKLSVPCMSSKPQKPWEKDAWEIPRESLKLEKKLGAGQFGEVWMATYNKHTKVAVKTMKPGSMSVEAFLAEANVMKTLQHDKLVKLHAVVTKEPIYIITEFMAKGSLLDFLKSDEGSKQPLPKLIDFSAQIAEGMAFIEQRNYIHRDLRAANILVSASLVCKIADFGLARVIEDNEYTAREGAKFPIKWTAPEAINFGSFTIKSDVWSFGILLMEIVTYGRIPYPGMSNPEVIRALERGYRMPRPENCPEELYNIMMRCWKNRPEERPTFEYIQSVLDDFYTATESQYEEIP
Experimental: as §1, §2

Fgr-YEEI = target: T6, Fgr-YEEI (Homo sapiens, UniProt P09769, G526I/P525E/Q524E); assay: SPR binding, near-full-length Fgr; settings: kinetic KD, 1:1 Langmuir model, ± S.E., NI = no interaction; for Kd: read-out: KD, Fgr proteins Fgr-YEEI
T6 construct: near-full-length Fgr, lacking only the unique domain and encoding the same modified C-terminal tail as near-full-length Hck (Fgr-YEEI); made in house; host or cells: Sf9 insect cells
T6 sequence (P09769 77-526 Q524E/P525E/G526I): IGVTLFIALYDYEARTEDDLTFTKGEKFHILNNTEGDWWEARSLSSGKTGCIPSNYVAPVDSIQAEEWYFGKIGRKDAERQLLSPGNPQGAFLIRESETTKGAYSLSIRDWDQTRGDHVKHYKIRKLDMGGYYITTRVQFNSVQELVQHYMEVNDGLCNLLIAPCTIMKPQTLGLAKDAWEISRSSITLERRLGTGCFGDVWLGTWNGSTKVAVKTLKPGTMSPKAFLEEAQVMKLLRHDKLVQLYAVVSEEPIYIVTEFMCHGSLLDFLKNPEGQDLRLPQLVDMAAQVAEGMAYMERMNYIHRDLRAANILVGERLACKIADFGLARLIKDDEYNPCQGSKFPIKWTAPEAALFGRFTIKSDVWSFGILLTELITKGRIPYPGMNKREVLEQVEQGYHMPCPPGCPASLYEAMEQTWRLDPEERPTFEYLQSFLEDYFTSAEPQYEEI
Experimental: as §1

Hck U-SH32-L (Hck-U32L) = target: T7, Hck U-SH32-L (Hck-U32L) (Homo sapiens, UniProt P08631); assay: SPR binding, Hck unique-SH3-SH2-linker protein; settings: kinetic KD, 1:1 Langmuir model, ± S.E., NI = no interaction, read-out: KD, Hck proteins U-SH32-L
T7 construct: including the N-terminal unique region, followed by the SH3 and SH2 domains, and the SH2-kinase linker; made in house; host or cells: E. coli
T7 sequence (P08631 22-256): as the sequence (P08631 22-256) above
Experimental: as §1, §2

Row | Structure (SMILES) | Kd (Fgr SH32) [µM] | Kd (Fgr U-SH32-L) [µM] | Kd (Hck SH32-L) [µM] | IC50 (Hck U32L protein) | Kd (Hck-YEEI) [µM] | Kd (Fgr-YEEI) [µM] | Kd (Hck U-SH32-L (Hck-U32L)) [µM] | Fold increase of KD with SH3-SH2-linker protein lacking the unique domain vs Hck-U32L (Hck SH32-L) | Reduction of extent of binding with SH3-SH2-linker protein lacking the unique domain vs Hck-U32L (Hck SH32-L) | KD, Fgr proteins SH32 (Fgr SH32) | KD, Fgr proteins U-SH32-L (Fgr U-SH32-L) | KD, Fgr proteins Fgr-YEEI (Fgr-YEEI)
1 | CC(C)Nc1ccnc(NCc2cccnc2Oc2ccc(F)cc2F)n1 [Compound 1] | 104 ± 3 | 131 ± 6 | 83 ± 19 | 52.9 µM and 53.2 µM | 103 ± 4 | 141 ± 4 | 36 ± 4 |  |  |  |  | 
2 | Cc1cnc(NCc2ccccc2CN2CCCC2=O)nc1N(C)C [Compound 4] | 69 ± 1 | 102 ± 4 | 338 ± 4 | 36.1 µM and 59.6 µM | 180 ± 1 | 64 ± 2 | 831 |  |  |  |  | 
3 | Cc1cnc(NCc2ccccc2-n2ccnc2)nc1N(C)C [Compound 2] | 352 ± 1 | 70 ± 5 | 96 ± 2 | 11.3 µM and 16.7 µM | 93 ± 1 | 107 ± 1 | 30 | about 3 fold | about 50% |  |  | 
4 | CNc1ccnc(NCCC23CCCN2CCC3)n1 [Compound 3] |  |  | 905 ± 18 | 36.3 µM and 31 µM | 142 ± 1 |  | 55 ± 5 |  |  | did not bind | did not bind | did not bind
